Assay results as given in ChEMBL document CHEMBL3885881, “DrugMatrix”.

Species: Rattus norvegicus
Test: DrugMatrix - Regimen: Daily Repeat
Assay type: toxicity, organism-based, Sprague-Dawley
Parameters: regimen Daily Repeat, gender Male, age 6-8 weeks
Settings: in vivo, iv, […], vehicle 100 % SALINE; for ALANINE AMINOTRANSFERASE / ALBUMIN / ALKALINE PHOSPHATASE / ASPARTATE AMINOTRANSFERASE / BLOOD UREA NITROGEN / CARBON DIOXIDE / CHLORIDE / CHOLESTEROL / CREATINE PHOSPHOKINASE / CREATININE / GLUCOSE / LACTATE DEHYDROGENASE / LIPASE / PHOSPHORUS / POTASSIUM / SODIUM / TOTAL BILIRUBIN / TOTAL PROTEIN / URIC ACID: tissue Plasma; for ABSOLUTE BASOPHIL / ABSOLUTE EOSINOPHIL / ABSOLUTE LYMPHOCYTE / ABSOLUTE MONOCYTE / ABSOLUTE SEGMENTED NEUTROPHIL / BASOPHIL / EOSINOPHIL / ERYTHROCYTE COUNT / HEMATOCRIT / HEMOGLOBIN / LEUKOCYTE COUNT / LYMPHOCYTE / MEAN CORPUSCULAR HEMOGLOBIN / MEAN CORPUSCULAR HEMOGLOBIN CONCENTRATION / MEAN CORPUSCULAR VOLUME / MONOCYTE / NEUTROPHIL / NUCLEATED RED BLOOD CELLS / PLATELET COUNT: tissue Blood
[1] = 72 h, dose 0.15 mg/Kg, dose level Low, time 3 day
[2] = 72 h, dose 1.5 mg/Kg, dose level High, time 3 day
[3] = 120 h, dose 0.15 mg/Kg, dose level Low, time 5 day
[4] = 120 h, dose 1.5 mg/Kg, dose level High, time 5 day

CCC1=C[C@@H]2CN(C1)Cc1c([nH]c3ccccc13)[C@@](C(=O)OC)(c1cc3c(cc1OC)N(C)[C@H]1[C@@](O)(C(=O)OC)[C@H](OC(C)=O)[C@]4(CC)C=CCN5CC[C@]31[C@@H]54)C2 [VINORELBINE]
ALANINE AMINOTRANSFERASE [1]: 59 u/L
ALBUMIN [1]: 4.53 G/DL
ALKALINE PHOSPHATASE [1]: 404 u/L
ASPARTATE AMINOTRANSFERASE [1]: 88.67 u/L
BLOOD UREA NITROGEN [1]: 17.33 mg/dL
CARBON DIOXIDE [1]: 27.33 mmol/L
CHLORIDE [1]: 101 MEQ/L
CHOLESTEROL [1]: 68.67 mg/dL
CREATINE PHOSPHOKINASE [1]: 237.67 u/L
CREATININE [1]: 0.23 mg/dL
GLUCOSE [1]: 167.33 mg/dL
LACTATE DEHYDROGENASE [1]: 308.67 u/L
LIPASE [1]: 9.67 u/L
PHOSPHORUS [1]: 13.7 mg/dL
POTASSIUM [1]: 6.88 MEQ/L
SODIUM [1]: 145.07 MEQ/L
TOTAL BILIRUBIN [1]: 0.23 mg/dL
TOTAL PROTEIN [1]: 6.33 G/DL
URIC ACID [1]: 2.1 mg/dL
ALANINE AMINOTRANSFERASE [2]: 45.33 u/L
ALBUMIN [2]: 4.47 G/DL
ALKALINE PHOSPHATASE [2]: 359.33 u/L
ASPARTATE AMINOTRANSFERASE [2]: 137.33 u/L
BLOOD UREA NITROGEN [2]: 20.67 mg/dL
CARBON DIOXIDE [2]: 24 mmol/L
CHLORIDE [2]: 103 MEQ/L
CHOLESTEROL [2]: 72.67 mg/dL
CREATINE PHOSPHOKINASE [2]: 671.33 u/L
CREATININE [2]: 0.17 mg/dL
GLUCOSE [2]: 185.67 mg/dL
LACTATE DEHYDROGENASE [2]: 160.33 u/L
LIPASE [2]: 10 u/L
PHOSPHORUS [2]: 13 mg/dL
POTASSIUM [2]: 5.92 MEQ/L
SODIUM [2]: 146 MEQ/L
TOTAL BILIRUBIN [2]: 0.1 mg/dL
TOTAL PROTEIN [2]: 6.2 G/DL
URIC ACID [2]: 2.37 mg/dL
ABSOLUTE BASOPHIL [3]: 0 CELLS/uL
ABSOLUTE EOSINOPHIL [3]: 49 CELLS/uL
ABSOLUTE LYMPHOCYTE [3]: 14282 CELLS/uL
ABSOLUTE MONOCYTE [3]: 49 CELLS/uL
ABSOLUTE SEGMENTED NEUTROPHIL [3]: 2420 CELLS/uL
BASOPHIL [3]: 0%
EOSINOPHIL [3]: 0.33%
ERYTHROCYTE COUNT [3]: 5.78 x10E6/uL
HEMATOCRIT [3]: 36.1%
HEMOGLOBIN [3]: 14.13 G/DL
LEUKOCYTE COUNT [3]: 16.8 x10E3/uL
LYMPHOCYTE [3]: 84.67%
MEAN CORPUSCULAR HEMOGLOBIN [3]: 24.47 pg
MEAN CORPUSCULAR HEMOGLOBIN CONCENTRATION [3]: 39.2 G/DL
MEAN CORPUSCULAR VOLUME [3]: 62.5 fL
MONOCYTE [3]: 0.33%
NEUTROPHIL [3]: 14.67%
NUCLEATED RED BLOOD CELLS [3]: 0 /100WBC
PLATELET COUNT [3]: 1168.33 x10E3/uL
ABSOLUTE BASOPHIL [4]: 0 CELLS/uL
ABSOLUTE EOSINOPHIL [4]: 0 CELLS/uL
ABSOLUTE LYMPHOCYTE [4]: 6817.33 CELLS/uL
ABSOLUTE MONOCYTE [4]: 24.67 CELLS/uL
ABSOLUTE SEGMENTED NEUTROPHIL [4]: 24.67 CELLS/uL
BASOPHIL [4]: 0%
EOSINOPHIL [4]: 0%
ERYTHROCYTE COUNT [4]: 5.47 x10E6/uL
HEMATOCRIT [4]: 31.93%
HEMOGLOBIN [4]: 12.93 G/DL
LEUKOCYTE COUNT [4]: 6.87 x10E3/uL
LYMPHOCYTE [4]: 99.33%
MEAN CORPUSCULAR HEMOGLOBIN [4]: 23.67 pg
MEAN CORPUSCULAR HEMOGLOBIN CONCENTRATION [4]: 40.5 G/DL
MEAN CORPUSCULAR VOLUME [4]: 58.4 fL
MONOCYTE [4]: 0.33%
NEUTROPHIL [4]: 0.33%
NUCLEATED RED BLOOD CELLS [4]: 0 /100WBC
PLATELET COUNT [4]: 359 x10E3/uL
ALANINE AMINOTRANSFERASE [3]: 48.33 u/L
ALBUMIN [3]: 4.33 G/DL
ALKALINE PHOSPHATASE [3]: 436.67 u/L
ASPARTATE AMINOTRANSFERASE [3]: 85 u/L
BLOOD UREA NITROGEN [3]: 16.67 mg/dL
CARBON DIOXIDE [3]: 27 mmol/L
CHLORIDE [3]: 100.67 MEQ/L
CHOLESTEROL [3]: 65.33 mg/dL
CREATINE PHOSPHOKINASE [3]: 245 u/L
CREATININE [3]: 0.2 mg/dL
GLUCOSE [3]: 166.33 mg/dL
LACTATE DEHYDROGENASE [3]: 152 u/L
LIPASE [3]: 9.33 u/L
PHOSPHORUS [3]: 12.43 mg/dL
POTASSIUM [3]: 7.02 MEQ/L
SODIUM [3]: 145.37 MEQ/L
TOTAL BILIRUBIN [3]: 0.2 mg/dL
TOTAL PROTEIN [3]: 6.27 G/DL
URIC ACID [3]: 2.07 mg/dL
ALANINE AMINOTRANSFERASE [4]: 58.67 u/L
ALBUMIN [4]: 4.23 G/DL
ALKALINE PHOSPHATASE [4]: 367.67 u/L
ASPARTATE AMINOTRANSFERASE [4]: 138.67 u/L
BLOOD UREA NITROGEN [4]: 15 mg/dL
CARBON DIOXIDE [4]: 31.33 mmol/L
CHLORIDE [4]: 100 MEQ/L
CHOLESTEROL [4]: 75 mg/dL
CREATINE PHOSPHOKINASE [4]: 193 u/L
CREATININE [4]: 0.19 mg/dL
GLUCOSE [4]: 143.67 mg/dL
LACTATE DEHYDROGENASE [4]: 98 u/L
LIPASE [4]: 9 u/L
PHOSPHORUS [4]: 10.6 mg/dL
POTASSIUM [4]: 6.34 MEQ/L
SODIUM [4]: 146.4 MEQ/L
TOTAL BILIRUBIN [4]: 0.2 mg/dL
TOTAL PROTEIN [4]: 6.13 G/DL
URIC ACID [4]: 0.9 mg/dL
